Data reported in US20040070093A1, “Process for preparing microparticles through phase inversion phenomena” (Brown University Research Foundation, priority 1995, published 2004).

Experiment: in vivo
Settings: rat, serum, po, 25 mg/kg
Procedure: Dicumarol containing microspheres were produced as described above in Example 2, subsection 1. Equal doses of dicumarol, spray dried dicumarol and polyanhydride (FA:SA) 20:80 encapsulated dicumarol (25 mg drug/kg body weight) suspended in 1.5 ml maple syrup were fed to catheterized rats (250-350 g). Blood samples were taken at regular intervals and serum was assayed for dicumarol concentrations using a UV spectrophotometric method.

- AUC: 232 ± 19.2 µg·h/mL
- Cmax: 17900 ± 1220 ng/mL
- Tmax: 9.42 ± 1.36 h
- half-life: 16.2 ± 0.87 h
SMILES: O=c1oc2ccccc2c(O)c1Cc1c(O)c2ccccc2oc1=O [SPRAY DICUMAROL CONTROL, dicumarol]
